Reference: BindingDB's records for patent US20230391758 (Merck Sharp & Dohme, 2023)
pEC50: −log10 of the molar value.

Molecular target: T1, Ceramide glucosyltransferase (Homo sapiens, UniProt Q16739)
T1 sequence (Q16739 whole entry): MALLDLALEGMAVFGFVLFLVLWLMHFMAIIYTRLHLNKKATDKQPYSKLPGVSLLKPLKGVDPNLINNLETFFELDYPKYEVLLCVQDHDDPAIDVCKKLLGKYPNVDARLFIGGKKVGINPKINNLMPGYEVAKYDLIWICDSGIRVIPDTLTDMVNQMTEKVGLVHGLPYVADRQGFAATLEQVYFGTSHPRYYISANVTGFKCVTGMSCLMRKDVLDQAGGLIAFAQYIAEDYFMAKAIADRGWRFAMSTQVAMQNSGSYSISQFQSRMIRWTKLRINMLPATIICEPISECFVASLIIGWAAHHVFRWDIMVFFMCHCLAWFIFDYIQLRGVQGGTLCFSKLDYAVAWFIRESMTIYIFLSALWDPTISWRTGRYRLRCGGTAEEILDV
Experiment: UDP-Glo Glucosylceramide Synthase Biochemical Assay
Experimental: Using Promega's UDP-Glo™ Glycosyltransferase assay kit (Promega Corporation, Madison, WI, USA (Promega)), GCS activity was indirectly measured by detecting the amount of UDP produced. An aliquot of GCS enzyme (1.5 μg crude golgi preparation, total protein) and titrated test compound were aliquoted to each well and incubated for 30 minutes at room temperature. Substrate mixture was prepared by mixing C6 ceramide (Avanti Polar Lipids, Alabaster, AL USA (Avanti)) (micelles prepared at 0.6 mM in 0.6 mM DOPC) and UDP-glucose (20 μ.M; Promega), at concentrations equivalent to 2×Km, in assay buffer (25 mM HEPES (pH 7.5), 50 mM KCl, 5 mM MgCl2). An equivalent volume of substrate mixture was then added to each well. Following a 20 h incubation at room temperature to allow for GCS turnover of substrate, an equal volume of UDP detection reagent (Promega) was added to each well and incubated for an additional 75 minutes at room temperature to simultaneously convert the accumulated UDP product into ATP and generate light in a luciferase reaction.

pEC50: 8.74
Structure (SMILES): CCCOc1ccccc1-c1cccc2cc(C(=O)Nc3cccnc3)oc12 [US20230391758, Compound 10]
